Among the data in ChEMBL document CHEMBL5104220, “Development of Gilteritinib-Based Chimeric Small Molecules that Potently Induce Degradation of FLT3-ITD Protein” (ACS Med Chem Lett, 2022) are inhibition, Activity and IC50 values, retold here.

As a reminder, the IC50 is the concentration at which inhibition is half-maximal.

Each structure is given as a SMILES string. The source made the active and inactive calls. The calls are words filed in the database; no cut-off is given here.

Assay [1] deals with T1, Signal transducer and activator of transcription 5A (Homo sapiens) (UniProt P42229).
T1 sequence (whole entry): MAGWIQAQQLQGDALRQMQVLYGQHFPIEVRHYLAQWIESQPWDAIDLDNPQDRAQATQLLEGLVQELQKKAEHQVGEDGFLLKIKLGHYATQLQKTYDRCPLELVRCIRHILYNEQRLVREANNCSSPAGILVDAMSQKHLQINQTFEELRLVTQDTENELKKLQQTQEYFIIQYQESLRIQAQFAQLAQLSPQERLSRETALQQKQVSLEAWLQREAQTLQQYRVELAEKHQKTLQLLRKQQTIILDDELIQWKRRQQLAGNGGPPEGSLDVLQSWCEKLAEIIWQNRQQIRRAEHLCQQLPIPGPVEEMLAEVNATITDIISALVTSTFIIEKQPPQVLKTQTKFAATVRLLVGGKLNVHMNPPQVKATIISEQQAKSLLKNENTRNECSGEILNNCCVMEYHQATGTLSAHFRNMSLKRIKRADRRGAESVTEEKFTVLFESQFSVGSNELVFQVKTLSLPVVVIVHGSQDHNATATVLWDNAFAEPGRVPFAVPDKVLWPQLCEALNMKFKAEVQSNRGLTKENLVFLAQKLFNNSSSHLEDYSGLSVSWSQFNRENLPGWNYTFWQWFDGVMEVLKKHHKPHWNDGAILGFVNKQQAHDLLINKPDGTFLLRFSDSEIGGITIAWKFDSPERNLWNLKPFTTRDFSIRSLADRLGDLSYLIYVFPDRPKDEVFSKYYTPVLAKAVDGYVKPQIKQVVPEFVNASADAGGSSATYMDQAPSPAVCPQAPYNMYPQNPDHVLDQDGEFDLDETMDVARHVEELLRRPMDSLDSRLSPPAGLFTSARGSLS
The experiment in a line: Inhibition of STAT5 phosphorylation in human MV4-11 cells at 0.03 to 3 uM incubated for 24 hrs by Western blot analysis. As to conditions: dose 0.03-3 µM. It counts as cell-based.

Assay [2] concerns Protein cereblon/Receptor-type tyrosine-protein kinase FLT3 (Homo sapiens), P36888+Q96SW2 [UNDEFINED MUTATION]. Description: PROTAC activity at CRBN/FLT3-ITD mutant in human MOLM-14 cells assessed as decrease in FLT3 mRNA expression at 0.03 to 3 uM incubated for 24 hrs by RT-qPCR analysis. Type of assay: cell-based. The note with it: dose 0.03-3 µM. A general note: Real-time PCR tracks product formation cycle by cycle.

Assay [3] has the same test system. The experiment in a line: PROTAC activity at CRBN/FLT3-ITD mutant in human MV4-11 cells assessed as decrease in ALK protein expression by Western blot analysis. It counts as cell-based. In general terms: A western blot detects proteins with antibodies after separation by electrophoresis.
For assay [4] the test system is unchanged. The experiment in a line: PROTAC activity at CRBN/FLT3-ITD mutant in human MV4-11 cells assessed as decrease in IKZF1 protein expression at 0.01 to 0.3 uM incubated for 24 hrs by Western blot analysis. Type of assay: cell-based. The note with it: dose 0.01-0.3 µM.
Assay [5] has the same test system. Description: PROTAC activity at CRBN/FLT3-ITD mutant in human MV4-11 cells assessed as decrease in LTK protein expression by Western blot analysis. It counts as cell-based.
For assay [6] the test system is unchanged. Description: PROTAC activity at CRBN/FLT3-ITD mutant in human MOLM-14 cells assessed as decrease in LTK protein expression by Western blot analysis. Type of assay: cell-based.
Assay [7] shares this test system. The experiment in a line: PROTAC activity at CRBN/FLT3-ITD mutant in human MV4-11 cells at 30 nM measured upto 32 hrs in the presence of cycloheximide by Western blot analysis. Type of assay: cell-based.
Assay [8] has the same test system. The experiment in a line: PROTAC activity at CRBN/FLT3-ITD mutant in human MOLM-14 cells assessed as decrease in ALK protein expression by Western blot analysis. It counts as cell-based.
Assay [9] has the same test system. Description: PROTAC activity at CRBN/FLT3-ITD mutant in human MV4-11 cells assessed as decrease in FLT3 protein expression at 0.3 to 3 uM incubated for 18 hrs in the presence of bafilomycin A1 by Western blot analysis. Type of assay: cell-based. As to conditions: dose 0.3-3 µM.
The test system is the same in assay [10]. Description: PROTAC activity at CRBN/FLT3-ITD mutant in human MV4-11 cells assessed as decrease in FLT3 protein expression at 0.03 to 3 uM incubated for 24 hrs by Western blot analysis. Type of assay: cell-based. As to conditions: dose 0.03-3 µM.
The test system of assay [11] is MOLM-14. The experiment in a line: Antiproliferative activity against human MOLM-14 cells harboring FLT3-ITD mutant assessed as inhibition of cell proliferation incubated for 72 hrs by WST-8 assay. As to conditions: MOLM-14, 72 h. Type of assay: functional, cell-based. (Tetrazolium assays rely on reduction of a dye to a coloured formazan, in cell work by metabolically active cells.)

Assay [12] deals with MV4-11. Description: Antiproliferative activity against human MV4-11 cells harboring FLT3-ITD mutant assessed as inhibition of cell proliferation incubated for 72 hrs by WST-8 assay. It counts as functional, cell-based. The note with it: MV4-11, 72 h.
Assay [13] concerns Protein cereblon/Receptor-type tyrosine-protein kinase FLT3 (Homo sapiens), P36888+Q96SW2 [UNDEFINED MUTATION]. The experiment in a line: PROTAC activity at CRBN/FLT3-ITD mutant in human MOLM-14 cells assessed as decrease in FLT3 protein expression at 0.03 to 3 uM incubated for 24 hrs by Western blot analysis. Type of assay: cell-based. The note with it: dose 0.03-3 µM.
Assay [14] has the same test system. Description: PROTAC activity at CRBN/FLT3-ITD mutant in human MOLM-14 cells assessed as decrease in IKZF1 protein expression at 0.01 to 0.3 uM incubated for 24 hrs by Western blot analysis. It counts as cell-based. The note with it: dose 0.01-0.3 µM.
Assay [15] shares this test system. Description: PROTAC activity at CRBN/FLT3-ITD mutant in human MV4-11 cells assessed as inhibition of STAT5 phosphorylation at 0.03 to 3 uM incubated for 24 hrs by Western blot analysis. It counts as cell-based. As to conditions: dose 0.03-3 µM.
For assay [16] the test system is unchanged. Description: PROTAC activity at CRBN/FLT3-ITD mutant in human MV4-11 cells assessed as inhibition of FLT3 phosphorylation at 0.03 to 3 uM incubated for 24 hrs by Western blot analysis. The note with it: dose 0.03-3 µM. Type of assay: cell-based.

Sequence of Protein cereblon/Receptor-type tyrosine-protein kinase FLT3 (Homo sapiens), P36888+Q96SW2 [UNDEFINED MUTATION] (P36888 whole entry, looked up, change not shown): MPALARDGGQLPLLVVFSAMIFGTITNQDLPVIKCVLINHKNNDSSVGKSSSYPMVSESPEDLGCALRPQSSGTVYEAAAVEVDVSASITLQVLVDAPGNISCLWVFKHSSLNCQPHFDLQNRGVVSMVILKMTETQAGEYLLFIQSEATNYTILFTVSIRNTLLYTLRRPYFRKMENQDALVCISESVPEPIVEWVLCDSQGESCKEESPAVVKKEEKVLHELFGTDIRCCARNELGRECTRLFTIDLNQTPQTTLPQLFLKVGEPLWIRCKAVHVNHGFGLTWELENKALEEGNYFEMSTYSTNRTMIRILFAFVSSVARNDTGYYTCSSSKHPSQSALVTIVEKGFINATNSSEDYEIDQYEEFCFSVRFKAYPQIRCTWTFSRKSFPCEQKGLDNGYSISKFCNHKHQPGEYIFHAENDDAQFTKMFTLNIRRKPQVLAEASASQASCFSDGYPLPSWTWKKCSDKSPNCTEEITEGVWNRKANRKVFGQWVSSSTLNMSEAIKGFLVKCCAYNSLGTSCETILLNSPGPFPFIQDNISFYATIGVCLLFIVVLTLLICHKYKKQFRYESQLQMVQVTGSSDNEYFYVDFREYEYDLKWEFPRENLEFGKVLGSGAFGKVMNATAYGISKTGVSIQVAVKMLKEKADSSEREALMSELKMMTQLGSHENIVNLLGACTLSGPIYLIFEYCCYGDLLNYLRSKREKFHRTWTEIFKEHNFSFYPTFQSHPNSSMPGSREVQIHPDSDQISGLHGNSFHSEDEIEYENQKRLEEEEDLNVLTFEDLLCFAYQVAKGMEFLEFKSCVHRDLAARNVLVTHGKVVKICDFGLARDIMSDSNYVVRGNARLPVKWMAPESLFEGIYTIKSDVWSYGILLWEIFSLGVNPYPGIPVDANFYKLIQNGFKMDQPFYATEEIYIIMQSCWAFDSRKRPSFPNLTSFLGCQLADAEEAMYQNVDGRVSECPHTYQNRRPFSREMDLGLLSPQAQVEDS
Sequence of Protein cereblon/Receptor-type tyrosine-protein kinase FLT3 (Homo sapiens), P36888+Q96SW2 [UNDEFINED MUTATION] (Q96SW2 whole entry, looked up, change not shown): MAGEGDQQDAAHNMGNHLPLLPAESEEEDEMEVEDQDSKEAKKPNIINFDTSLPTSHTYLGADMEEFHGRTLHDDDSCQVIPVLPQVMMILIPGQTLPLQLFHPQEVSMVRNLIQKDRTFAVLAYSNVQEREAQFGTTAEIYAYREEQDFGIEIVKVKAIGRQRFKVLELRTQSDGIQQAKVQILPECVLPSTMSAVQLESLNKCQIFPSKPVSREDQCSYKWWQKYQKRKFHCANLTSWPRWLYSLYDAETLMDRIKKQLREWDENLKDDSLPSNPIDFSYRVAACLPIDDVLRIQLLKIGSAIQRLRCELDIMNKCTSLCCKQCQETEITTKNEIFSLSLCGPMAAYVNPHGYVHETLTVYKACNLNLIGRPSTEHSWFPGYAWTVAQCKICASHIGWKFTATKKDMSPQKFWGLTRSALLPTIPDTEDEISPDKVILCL

In the case of `CCc1nc(C(N)=O)c(Nc2ccc(N3CCC(N4CCN(C)CC4)CC3)c(OC)c2)nc1NC1CCOCC1`, the inhibition result in assay [1] is “Active”.

`CCc1nc(C(N)=O)c(Nc2ccc(N3CCC(N4CCN(CC5CCN(C(=O)CCOCCOCCNc6cccc7c6C(=O)N(C6CCC(=O)NC6=O)C7=O)CC5)CC4)CC3)c(OC)c2)nc1NC1CCOCC1` (stereo unspecified): the result in assay [2], in [3], in assay [4], in assay [5], in assay [6] and in [7] was Active. Moreover, the outcome in assay [8], in [9], in assay [10], in assay [13] and in assay [14] was Active. The IC50 in assay [11] was found to be 2.8 nM; in [12] it was 0.9 nM.

For the molecule `CNC(=O)c1cc(Oc2ccc(NC(=O)Nc3ccc(Cl)c(C(F)(F)F)c3)cc2)ccn1`, in assay [1], the inhibition entry was “Active”.

Regarding `CC(C)(C)c1cc(NC(=O)Nc2ccc(-c3cn4c(n3)sc3cc(OCCN5CCOCC5)ccc34)cc2)no1`, the inhibition entry in assay [1] is “Active”.

For the molecule `CC1(COc2ccc3c(c2)ncn3-c2ccc3cccc(N4CCC(N)CC4)c3n2)COC1`, the inhibition result in assay [1] was “Active”.

Regarding `CCc1nc(C(N)=O)c(Nc2ccc(N3CCC(N4CCN(CC5CCN(C(=O)CCOCCOCCOCCOCCNc6cccc7c6C(=O)N(C6CCC(=O)NC6=O)C7=O)CC5)CC4)CC3)c(OC)c2)nc1NC1CCOCC1` (stereo unspecified), the result in [15], in assay [10], in [16] and in assay [13] was Active.
